# Test results from patent publication US7361186B2, “Active body cooling with vasodilation to reduce body temperature” (priority 2003, dated 2008).
# Several values for one entry are separate records, joined by “and”; a condition that tells them apart may be missing. Equal values may be shown once. Read-outs that look alike come from different tables or passages of the source.
# Experiments:
# healthy subjects [1] = experiment: Phase 5: cooling under meperidine plus IV ondansetron; assay type: in vivo, human
# healthy subjects [2] = experiment: Subsequent test similar to Phase 5 with supplemental ondansetron dose; assay type: in vivo, human; conditions: one subject; ondansetron 8 mg initial dose and 8 mg supplemental dose 3.5 hours later
# Experimental: Moreover, during a subsequent test conducted in a manner similar to that described for Phase 5, a subject is administered an initial dose of 8 mg of the ondansetron followed by a supplemental dose of 8 mg of the ondansetron administered 3.5 hours later.
# healthy subjects [3] = experiment: Phase 1: cooling of healthy subjects with contact-cooling pads under meperidine; assay type: in vivo, human
# Experimental: Four contact pads are applied to the thighs and chest of each subject and each subject is rapidly cooled with an objective of reducing core body temperature to 34-35° C. Core body temperatures are measured at the tympanic membrane and the rectum. Mean skin-surface temperature is determined from the weighted average of calf, thigh, chest, and upper arm skin temperatures. Thermoregulatory vasoconstriction is evaluated using forearm minus fingertip skin-temperature gradients. Temperatures are measured using Mon-a-Therm™ themocouple probes connected to Mallinckrodt Model 6510 two-channel electronic thermometers having an accuracy near 0.1° C. (Mallinckrodt Anesthesia Products, St. Louis, Mo., U.S.A.). Temperatures are recorded before cooling is started (i.e., baseline) and subsequently at 15-minute intervals.
# Each of subjects 1-5 is administered a single dose of acetomiophen (1000 mg) within 20 minutes prior to treatment and is administered a bolus of intravenous (IV) meperidine (Demerol®, 25-75 mg) within 5 minutes of the start of cooling. Subjects also receive initial doses of chlorpromazine (Thorazine®, 12.5-25 mg, IV). Active cooling is initiated and the inlet water temperature is controlled to achieve a target tympanic temperature between 34° C. and 35° C. Additional doses of meperidine and/or chloropromazine are administered to maintain comfort and to prevent shivering. Active cooling and maintenance of hypothermia continues for up to five hours, after which subjects are actively re-warmed to tympanic and rectal temperatures of at least 36° C.
# The presence of shivering is noted by physical examination, electromyographic artifact on continuous electrocardiography (ECG), or by subject report. Overall thermal comfort is evaluated at 15-min intervals with a 100-mm-long visual analog scale (VAS) on which 0 mm defines the worst imaginable cold, 50 mm identifies thermal neutrality, and 100 mm indicates unbearable heat. A new, unmarked scale is used for each assessment. Heart rate and oxyhemoglobin saturation are monitored using ECG and pulse oximetry; arterial blood pressure is recorded oscillometrically at 15-minute intervals.
# healthy subjects [4] = experiment: Phase 3a: cooling with five contact-cooling pads under meperidine; assay type: in vivo, human
# Excerpt: (§1) Mild hypothermia is induced and maintained in healthy subjects for up to several hours. […] Each volunteer is cooled using contact-cooling pads (Arctic Sun Energy Transfer Pads™, Medivance, Inc., Louisville, Colo., U.S.A.). Contact-cooling pads are applied to contact the subjects, and water at a controlled temperature is delivered to and circulated through the contact pads to effect the controlled cooling of each volunteer.
# healthy subjects [5] = conditions: Phase 4
# Excerpt: as §1
# healthy subjects [6] = conditions: Phase 6
# Excerpt: Mild hypothermia is induced and maintained in healthy subjects for up to several hours. Table 1 summarizes data concerning the subjects for each phase of testing (Phases 1, 3a, 4, 5 and 6). Each volunteer is cooled using contact-cooling pads (Arctic Sun Energy Transfer Pads™, Medivance, Inc., Louisville, Colo., U.S.A.). Contact-cooling pads are applied to contact the subjects, and water at a controlled temperature is delivered to and circulated through the contact pads to effect the controlled cooling of each volunteer.
# Five contact-cooling pads are applied to the thighs, back and abdomen of each subjects, and actively cooled. The pads cover and contact about 0.6 square meter of the subject's exterior body surface area, which is the area in heat transfer communication between the pads and the subject's body. Temperatures are measured in the same manner as in Phase 1 except that the rectal temperature probe is connected to a control module and the rectal temperature signal is used by the control module to adjust inlet water temperature via a feedback control algorithm to achieve a target core body temperature of 34.5° C.
# A single oral dose of acetaminophen (1000 mg), is administered within 20 minutes prior to treatment. A bolus of IV meperidine (Demerol®, 50-100 mg) is given within 5 minutes of the start of active cooling. Additional doses of meperidine are administered to maintain comfort and to prevent shivering. Active cooling and maintenance of hypothermia continues for five hours. As in the Phase 1, the subjects are actively re-warmed to a tympanic and rectal temperatures of at least of 36° C. prior to termination of the experiment. Shivering, comfort, oxyhemoglobin saturation, and arterial blood pressure are recorded as in Phase 1.
# Phase 5 Phase 5 proceeds as described for Phase 3a, except as noted. The temperature of water circulated to the contact-cooling pads is controlled to achieve a target core body temperature of 34.5° C. In addition to meperidine (Demerol®), subjects are also given an IV dose of 8 mg ondansetron (hydrochloride salt, Glaxo Wellcome). […]
# [7] = Phase 5, meperidine plus ondansetron, mean of 6 subjects
# [8] = meperidine regimen, mean of 5 subjects
# [9] = Phase 3a, meperidine regimen, individual subjects
# [10] = Phase 3a, meperidine regimen, mean of 5 subjects
# [11] = meperidine plus buspirone, mean of 4 subjects
# [12] = meperidine, ondansetron and magnesium sulfate, mean of 8 subjects
smiles,measurement,setting,value
Cc1nccn1CC1CCc2c(c3ccccc3n2C)C1=O (stereo not drawn) [ondansetron],"Cumulative Heat Transfer From Subject, 5 Min","healthy subjects [1]; Phase 5, 5 Min after initiation of cooling, gross values, corrected values approximately 15% smaller, individual subjects",53.91 kcal and 37.16 kcal and 48.61 kcal and 45.90 kcal and 44.85 kcal
same,"Cumulative Heat Transfer From Subject, 10 Min","healthy subjects [1]; Phase 5, 10 Min after initiation of cooling, gross values, individual subjects",96.81 kcal and 73.79 kcal and 84.78 kcal and 82.99 kcal and 79.01 kcal
same,"Cumulative Heat Transfer From Subject, 15 Min","healthy subjects [1]; Phase 5, 15 Min after initiation of cooling, gross values, individual subjects",136.59 kcal and 109.68 kcal and 124.12 kcal and 118.51 kcal and 111.35 kcal
same,"Cumulative Heat Transfer From Subject, 20 Min","healthy subjects [1]; Phase 5, 20 Min after initiation of cooling, gross values, individual subjects",175.59 kcal and 142.73 kcal and 163.01 kcal and 151.96 kcal and 142.43 kcal
same,"Cumulative Heat Transfer From Subject, 25 Min","healthy subjects [1]; Phase 5, 25 Min after initiation of cooling, gross values, individual subjects",214.2 kcal and 169.85 kcal and 200.85 kcal and 184.79 kcal and 172.00 kcal
same,"Cumulative Heat Transfer From Subject, 30 Min","healthy subjects [1]; Phase 5, 30 Min after initiation of cooling, gross values, individual subjects",252.02 kcal and 184.74 kcal and 239.02 kcal and 218.02 kcal and 201.44 kcal
same,"Cumulative Heat Transfer From Subject, 45 Min","healthy subjects [1]; Phase 5, 45 Min after initiation of cooling, gross values, individual subjects",360.32 kcal and 205.19 kcal and 354.67 kcal and 309.30 kcal and 282.20 kcal
same,"Cumulative Heat Transfer From Subject, 60 Min","healthy subjects [1]; Phase 5, 60 Min after initiation of cooling, gross values, individual subjects",466.28 kcal and 212.94 kcal and 467.30 kcal and 346.56 kcal and 353.28 kcal
same,"Cumulative Heat Transfer From Subject, 75 Min","healthy subjects [1]; Phase 5, 75 Min after initiation of cooling, gross values, individual subjects",567.71 kcal and 284.94 kcal and 574.88 kcal and 361.63 kcal and 423.43 kcal
same,"Cumulative Heat Transfer From Subject, 90 Min","healthy subjects [1]; Phase 5, 90 Min after initiation of cooling, gross values, individual subjects",667.78 kcal and 348.14 kcal and 676.99 kcal and 367.39 kcal and 436.35 kcal
same,"Cumulative Heat Transfer From Subject, 105 Min","healthy subjects [1]; Phase 5, 105 Min after initiation of cooling, gross values, individual subjects",767.83 kcal and 375.85 kcal and 708.76 kcal and 366.43 kcal and 458.46 kcal
same,"Cumulative Heat Transfer From Subject, 120 Min","healthy subjects [1]; Phase 5, 120 Min after initiation of cooling, gross values, individual subjects",867.73 kcal and 407.01 kcal and 733.20 kcal and 368.56 kcal and 457.78 kcal
same,effect on incidence of nausea and vomiting,"healthy subjects [1]; Phase 5, IV ondansetron 8 mg with meperidine, relative to Phases 3a and 4",reduces the incidence of nausea and vomiting
same,Time to 35° C.,"healthy subjects [1]; Phase 5, as Phase 3a (meperidine) plus IV ondansetron 8 mg, individual subjects",58 min and 88 min and 310 min and 189 min and 60 min and 80 min
same,Cooling rate to 35° C.,"healthy subjects [1]; Phase 5, meperidine plus IV ondansetron 8 mg, individual subjects",1.4 ° C./hr and 1.6 ° C./hr and 0.5 ° C./hr and 0.6 ° C./hr and 1.9 ° C./hr and 1.5 ° C./hr
same,"Cooling rate to 35° C., Mean ± SD",healthy subjects [1]; [7],1.3 ° C./hr and 1.3 ± 0.6 ° C./hr
same,"Time to 35° C., Mean ± SD",healthy subjects [1]; [7],131 ± 100 min
same,meperidine administration relative to Phase 3a,"healthy subjects [1]; Phase 5, p=0.26, t-test",trend toward less meperidine administration
same,mean comfort score,"healthy subjects [1]; Phase 5 versus Phases 1, 3a and 4",higher
same,nausea,healthy subjects [2],does not experience nausea
CCOC(=O)C1(c2ccccc2)CCN(C)CC1 [meperidine],Time to 35° C.,"healthy subjects [3]; four contact pads, acetaminophen 1000 mg, IV meperidine 25-75 mg bolus plus additional doses, chlorpromazine, tympanic temperature, individual subjects",105 min and 78 min and 41 min and 82 min and 81 min
same,Nausea or Vomiting During Treatment,"healthy subjects [3]; meperidine regimen, individual subjects",None
same,"Cooling rate to 35° C., Mean ± SD",healthy subjects [3]; [8],1.5±0.6 ° C./hr and 1.5 ± .6 ° C./hr
same,"Time to 35° C., Mean ± SD",healthy subjects [3]; [8],77 ± 23 min
same,Cooling rate to 35° C.,"healthy subjects [3]; meperidine regimen, tympanic temperature, individual subjects",1.0 ° C./hr and 1.5 ° C./hr and 2.6 ° C./hr and 1.2 ° C./hr and 1.4 ° C./hr
same,allergic reaction,"healthy subjects [1]; Phase 5, one subject withdrawn, facial rash",mild allergic reaction
same,Systolic blood pressure,"healthy subjects [4]; Phase 3a, 180 min timepoint, baseline 122±13, p=0.042",140±20 mm Hg
same,"change in heart rate, diastolic blood pressure, or blood oxygenation compared with baseline","healthy subjects [4]; Phase 3a, all subjects, during cooling",no statistically significant change
same,Time to 35° C.,"healthy subjects [4]; Phase 3a, five contact-cooling pads, oral acetaminophen 1000 mg, IV meperidine 50-100 mg bolus plus additional doses, tympanic temperature, individual subjects",64 min and 180 min and 94 min and 56 min and 46 min
same,Cooling rate to 35° C.,healthy subjects [4]; [9],1.9 ° C./hr (2×) and .9 ° C./hr and 1.2 ° C./hr and 2.1 ° C./hr
same,Nausea or Vomiting During Treatment,healthy subjects [4]; [9],"Nausea end (2×) and None and Nausea early, end and Nausea, vomiting mid"
same,"Cooling rate to 35° C., Mean ± SD",healthy subjects [4]; [10],1.6 ± 0.5 ° C./hr
same,"Time to 35° C., Mean ± SD",healthy subjects [4]; [10],88 ± 54 min
same,respiratory compromise,healthy subjects [4]; Phases 1 and 3a,no respiratory compromise
same,"nausea observed, share of subjects","healthy subjects [4]; Phases 1 and 3a pooled, all cases in Phase 3a",30 % of subjects
same,indications of vasodilation (Tdig being larger than Tfore),"healthy subjects [4]; Phases 3a, 4 and 5 (no vasodilation drug), early stages of cooling",only a few of the subjects
O=C1CC2(CCCC2)CC(=O)N1CCCCN1CCN(c2ncccn2)CC1 [buspirone],"Cooling rate to 35° C., Mean ± SD",healthy subjects [5]; [11],1.2 ± 0.4 ° C./hr
same,"Time to 35° C., Mean ± SD",healthy subjects [5]; [11],109 ± 40 min
same,effect on incidence of nausea,"healthy subjects [5]; oral buspirone 30-60 mg with meperidine, four subjects",did not reduce the incidence of nausea
O=S(=O)([O-])[O-].[Mg+2] [magnesium sulfate],indications of vasodilation (Tdig being larger than Tfore),healthy subjects [6]; early stages of cooling,seven of eight subjects
same,"Cooling rate to 35° C., Mean ± SD",healthy subjects [6]; [12],1.3 ± 0.4 ° C./hr
same,"Time to 35° C., Mean ± SD",healthy subjects [6]; [12],86 ± 23 min
